Assay results taken from patent publication US12187702B2, “Sulfonamideurea compounds” (Inflazome Limited, priority 2018, dated 2025).
Where a name gives a salt, the structure may show the parent alone.

Assays:
NLRP3 [1] = target: T1, NLRP3 (Homo sapiens, UniProt Q96P20); assay: THP-1 cells pyroptosis assay (LPS + nigericin, resazurin read-out); assay type: cell-based; parameters: Seed THP-1 cells (25,000 cells/well) containing 1.0 μg/ml LPS; host or cells: THP-1 cells; details: THP-1 cells, 1 μg/ml LPS, 5 μM nigericin; NLRP3 inhibitory activity; read-out: THP IC50
T1 sequence (Q96P20 whole entry): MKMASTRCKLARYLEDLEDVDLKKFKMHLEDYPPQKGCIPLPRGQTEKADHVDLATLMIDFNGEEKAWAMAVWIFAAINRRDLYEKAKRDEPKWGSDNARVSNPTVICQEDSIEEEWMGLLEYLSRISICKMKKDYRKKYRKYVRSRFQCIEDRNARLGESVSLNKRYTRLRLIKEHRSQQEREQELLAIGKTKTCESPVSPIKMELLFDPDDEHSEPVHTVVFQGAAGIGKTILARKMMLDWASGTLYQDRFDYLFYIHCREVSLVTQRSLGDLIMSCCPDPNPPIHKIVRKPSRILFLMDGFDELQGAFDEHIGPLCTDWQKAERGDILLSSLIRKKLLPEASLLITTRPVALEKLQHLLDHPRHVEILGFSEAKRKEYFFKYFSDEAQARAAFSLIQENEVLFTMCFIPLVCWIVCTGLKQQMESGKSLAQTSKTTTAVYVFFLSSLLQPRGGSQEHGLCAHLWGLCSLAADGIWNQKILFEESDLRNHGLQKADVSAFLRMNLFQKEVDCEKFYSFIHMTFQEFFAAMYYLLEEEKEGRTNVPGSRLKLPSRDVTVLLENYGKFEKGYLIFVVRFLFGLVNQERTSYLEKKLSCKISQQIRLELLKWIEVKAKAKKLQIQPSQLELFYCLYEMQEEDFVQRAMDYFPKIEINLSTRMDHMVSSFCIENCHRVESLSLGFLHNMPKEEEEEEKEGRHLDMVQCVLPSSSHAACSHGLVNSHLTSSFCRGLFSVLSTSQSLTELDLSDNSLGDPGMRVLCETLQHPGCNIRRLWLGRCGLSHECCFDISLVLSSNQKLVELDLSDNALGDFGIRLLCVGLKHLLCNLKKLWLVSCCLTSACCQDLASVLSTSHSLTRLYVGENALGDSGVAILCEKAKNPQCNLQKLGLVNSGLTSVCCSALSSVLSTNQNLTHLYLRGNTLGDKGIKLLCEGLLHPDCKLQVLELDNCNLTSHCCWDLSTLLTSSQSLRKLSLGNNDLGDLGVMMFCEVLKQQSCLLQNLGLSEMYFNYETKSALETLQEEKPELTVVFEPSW
In short: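 THP-1 cells (25,000/well) primed with 1 μg/ml LPS in serum-free RPMI, treated 3 h with compound (8-point half-log series, 10 μM top, 0.1% DMSO), then 5 μM nigericin for 1 h at 37 °C. Viability read by 100 μM resazurin fluorescence after 1-2 h; IC50 from 4-parameter fit.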

NLRP3 [2] = target: T1, NLRP3; assay: Human whole blood IL-1β release assay (LPS + nigericin, AlphaLisa); assay type: cell-based; parameters: Plate out 80 μl of whole blood containing 1 μg/ml of LPS; from tissue; host or cells: human whole blood from healthy donors; details: human whole blood, 1 μg/ml LPS, 10 μM nigericin; IL-1β release; read-out: HWB IC50
Experimental: For systemic delivery, the ability to inhibit NLRP3 when the compounds are present within the bloodstream is of great importance. For this reason, the NLRP3 inhibitory activity of a number of compounds in human whole blood was investigated in accordance with the following protocol.
Human whole blood in Li-heparin tubes was obtained from healthy donors from a volunteer donor panel. • 1. Plate out 80 μl of whole blood containing 1 μg/ml of LPS in 96-well, clear bottom cell culture plate (Corning #3585) • 2. Add 10 μl compound (8 points half-log dilution with 10 μM top dose) or vehicle (DMSO 0.1% FAC) to the appropriate wells • 3. Incubate for 3 hrs at 37° C., 5% CO2 • 4. Add 10 μl nigericin (Sigma #N7143) (10 μM FAC) to all wells • 5. Incubate for 1 hr at 37° C., 5% CO2 • 6. At the end of the incubation period, spin plates at 300×g for 5 mins to pellet cells and remove 20 μl of supernatant and add to 96-well v-bottom plates for IL-1β analysis (note: these plates containing the supernatants can be stored at −80° C. to be analysed at a later date) • 7. IL-1β was measured according to the manufacturer protocol (Perkin Elmer-AlphaLisa IL-1 Kit AL220F-5000) • 8. IC50 data is fitted to a non-linear regression equation (log inhibitor vs response-variable slope 4-parameters)

SMILES	IC50 (NLRP3 [1])	IC50 (NLRP3 [2])
CC(C)N(CCN(C)C)S(=O)(=O)NC(=O)Nc1c2c(cc3c1CCC3)CCC2 [Example 83, 3-(N-(2-(Dimethylamino)ethyl)-N-isopropylsulfamoyl)-1-(1,2,3,5,6,7-hexahydro-s-indacen-4-yl)urea, potassium salt]	< 1000 nM	< 5000 nM
CN1CC(CN(C)S(=O)(=O)NC(=O)Nc2c3c(cc4c2CCC4)CCC3)C1 [Example 84, 3-(N-Methyl-N-((1-methylazetidin-3-yl)methyl)sulfamoyl)-1-(1,2,3,5,6,7-hexahydro-s-indacen-4-yl)urea, potassium salt]	< 500 nM	< 1000 nM
CCN1CC2CN(S(=O)(=O)NC(=O)Nc3c4c(cc5c3CCC5)CCC4)CC21 (stereo not drawn) [Example 85, 6-Ethyl-N-((1,2,3,5,6,7-hexahydro-s-indacen-4-yl)carbamoyl)-3,6-diazabicyclo[3.2.0]heptane-3-sulfonamide]	< 500 nM	< 500 nM
CN1CC2CN(S(=O)(=O)NC(=O)Nc3c4c(cc5c3CCC5)CCC4)CC21 (stereo not drawn) [Example 86, N-((1,2,3,5,6,7-Hexahydro-s-indacen-4-yl)carbamoyl)-6-methyl-3,6-diazabicyclo[3.2.0]heptane-3-sulfonamide]	< 500 nM	< 500 nM
CC(C)N1CC2CN(S(=O)(=O)NC(=O)Nc3c4c(cc5c3CCC5)CCC4)CC21 (stereo not drawn) [Example 87, N-((1,2,3,5,6,7-Hexahydro-s-indacen-4-yl)carbamoyl)-6-isopropyl-3,6-diazabicyclo[3.2.0]heptane-3-sulfonamide, potassium salt]	< 500 nM	< 5000 nM
CN1CC[C@H](NS(=O)(=O)NC(=O)Nc2c3c(cc4c2CCC4)CCC3)C1 [Example 88, 3-((S)—N-(1-Methylpyrrolidin-3-yl)sulfamoyl)-1-(1,2,3,5,6,7-hexahydro-s-indacen-4-yl)urea, potassium salt]	< 1000 nM	< 500 nM
CN1CC[C@@H](NS(=O)(=O)NC(=O)Nc2c3c(cc4c2CCC4)CCC3)C1 [Example 89, 3-((R)—N-(1-Methylpyrrolidin-3-yl)sulfamoyl)-1-(1,2,3,5,6,7-hexahydro-s-indacen-4-yl)urea, potassium salt]	< 500 nM	< 500 nM

Second part, the compound after the results:

IC50 (NLRP3 [1])	IC50 (NLRP3 [2])	SMILES
< 1000 nM	< 500 nM	CN1CCCN(S(=O)(=O)NC(=O)Nc2c3c(cc4c2CCC4)CCC3)CC1 [Example 90, N-((1,2,3,5,6,7-Hexahydro-s-indacen-4-yl)carbamoyl)-4-methyl-1,4-diazepane-1-sulfonamide, potassium salt]
< 1000 nM	< 5000 nM	CN1CC2(CCN2S(=O)(=O)NC(=O)Nc2c3c(cc4c2CCC4)CCC3)C1 [Example 91, N-((1,2,3,5,6,7-Hexahydro-s-indacen-4-yl)carbamoyl)-6-methyl-1,6-diazaspiro[3.3]heptane-1-sulfonamide, potassium salt]
< 500 nM	< 500 nM	CN1C[C@H]2CN(S(=O)(=O)NC(=O)Nc3c4c(cc5c3CCC5)CCC4)C[C@H]21 [Example 92, (1S,5S)—N-((1,2,3,5,6,7-Hexahydro-s-indacen-4-yl)carbamoyl)-6-methyl-3,6-diazabicyclo[3.2.0]heptane-3-sulfonamide, potassium salt]
< 500 nM	< 500 nM	CN1C[C@@H]2CN(S(=O)(=O)NC(=O)Nc3c4c(cc5c3CCC5)CCC4)C[C@@H]21 [Example 93, (1R,5R)—N-((1,2,3,5,6,7-Hexahydro-s-indacen-4-yl)carbamoyl)-6-methyl-3,6-diazabicyclo[3.2.0]heptane-3-sulfonamide, potassium salt]
< 500 nM	< 1000 nM	CN1CC2CN(S(=O)(=O)NC(=O)Nc3c4c(cc5c3CCC5)CCC4)C2C1 (stereo not drawn) [Example 94, N-((1,2,3,5,6,7-Hexahydro-s-indacen-4-yl)carbamoyl)-3-methyl-3,6-diazabicyclo[3.2.0]heptane-6-sulfonamide, potassium salt]
